Laboratory results published in US20020137929A1, “1 - (3-heterocyclylphenyl) isothiourea, -isourea, -guanidine and -amidine herbicidal agents” (Intellectual Property Department, BASF Aktiengesellschaft, priority 1998, published 2002).

How the values were obtained:
[1] = test system: SAGPY (Arrowhead (Pygmaea)); assay: Postemergence weed control under flooded paddy conditions; type: in vivo, Sagittaria pygmaea; conditions: postemergence weeds, rated 3 to 4 weeks after treatment
Procedure, shortened: (§1)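 Weeds 3 to 5 cm tall and rice seedlings at the 1.5 to 2.5 leaf stage were flooded, with water held 1.5 to 3 cm above the soil. Compounds in 50/50 v/v aqueous/acetone went into the flood water at about 0.0313 to 0.500 kg/ha. Visual 0-9 ratings versus control were made 3 to 4 weeks later.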

AMBEL (Ragweed, Common) = assay: Preemergence herbicidal evaluation; type: in vivo, Ambrosia artemisifolia; conditions: rated 4-5 weeks after treatment
Procedure, shortened: (§2)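 Seeds were planted in potting soil in cups, then sprayed preemergence with the test compound in aqueous acetone at about 0.0156 to 0.500 kg per hectare. Cups were kept under greenhouse conditions and visually rated 4–5 weeks after treatment on a 0–9 scale against an untreated control.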

CYPSE (Flatsedge) [2] = assay: Postemergence weed control under flooded paddy conditions; type: in vivo, Cyperus serotinus; conditions: postemergence weeds, rated 3 to 4 weeks after treatment
Procedure, shortened: as §1

ZEAMX (Corn, Field) = assay: Postemergence herbicidal evaluation; type: in vivo, Zea mays; conditions: postemergence
Procedure, shortened: (§3)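 First, seedlings were raised for around two weeks. Next, test material in 50/50 acetone/water containing 0.5% TWEEN 20 was sprayed through a nozzle at 40 psi, equivalent to about 0.0156–0.500 kg/ha. Finally, after 4–5 weeks in the greenhouse, plants were rated 0–9.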

ORYSAT (Rice, Tebonnet) [3] = assay: Preemergence herbicidal evaluation; type: in vivo, Oryza sativa, (L.) Tebonnet; conditions: rated 4-5 weeks after treatment
Procedure, shortened: as §2

[4] = test system: GLXMAW (Soybean, Williams); assay: Preemergence herbicidal evaluation; type: in vivo, Glycine max, (L.) Merr. cv Williams; conditions: rated 4-5 weeks after treatment
Procedure, shortened: as §2

ORYSAT (Rice, Tebonnet) [5] = assay: Postemergence herbicidal evaluation; type: in vivo, Oryza sativa, (L.) Tebonnet; conditions: postemergence
Procedure, shortened: as §3

CYPSE (Flatsedge) [6] = assay: Preemergence weed control under flooded paddy conditions; type: in vivo, Cyperus serotinus; conditions: rated 3-4 weeks after treatment
Procedure, shortened: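 Flooded-pot preemergence screen with silt loam and seeds in the upper 0.5 cm. Dose about 0.0313 to 0.500 kg/ha, delivered into flood water; visual 0-9 score after 3 to 4 weeks.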

CASOB (Sicklepod) = assay: Postemergence herbicidal evaluation; type: in vivo, Cassia obtusifolia; conditions: postemergence
Procedure, shortened: as §3

CYPIR (Rice Flatsedge) = assay: Postemergence weed control under flooded paddy conditions; type: in vivo, Cyperus iria; conditions: postemergence weeds, rated 3 to 4 weeks after treatment
Procedure, shortened: as §1

SETVI (Foxtail, Green) = assay: Preemergence herbicidal evaluation; type: in vivo, Setaria viridis; conditions: rated 4-5 weeks after treatment
Procedure, shortened: as §2

GALAP (Galium) = assay: Postemergence herbicidal evaluation; type: in vivo, Galium aparine; conditions: postemergence
Procedure, shortened: as §3

[7] = test system: CHEAL (Lambsquarters, Common); assay: Postemergence herbicidal evaluation; type: in vivo, Chenopodium album; conditions: postemergence
Procedure, shortened: as §3

CC(C)C[C@@H](C(=O)O)N1C(=O)CSC1=Nc1cc(-n2c(=O)cc(C(F)(F)F)n(C)c2=O)c(F)cc1Cl [Compound 71, α-Isobutyl-2-{{2-chloro-5-[3,6-dihydro-3-methyl-2,6-dioxo-4-(trifluoromethyl)-1(2H)-pyrimidinyl]-4-fluorophenyl}imino}-4-oxo-3-thiazolidineacetic acid, L-]
3.5: ORYSAT herbicidal rating (ORYSAT (Rice, Tebonnet) [5]; rate 0.0315 kg/ha)
4.0: CASOB herbicidal rating (CASOB (Sicklepod); rate 0.0630 kg/ha) | Preemergence herbicidal rating SETVI (SETVI (Foxtail, Green); rate 0.1250 kg/ha) | GALAP herbicidal rating (GALAP (Galium); rate 0.0158 kg/ha)
3.0: Herbicidal rating CYPSE (CYPSE (Flatsedge) [2]; Rate 0.1250 kg/ha) | Herbicidal rating CYPSE (CYPSE (Flatsedge) [2]; Rate 0.2500 kg/ha) | Preemergence herbicidal rating ORYSAT (ORYSAT (Rice, Tebonnet) [3]; rate 0.2500 kg/ha) | Preemergence herbicidal rating GLXMAW ([4]; rate 0.1250 kg/ha) | ORYSAT herbicidal rating (ORYSAT (Rice, Tebonnet) [5]; rate 0.0158 kg/ha) | CYPSE herbicidal effect rating (CYPSE (Flatsedge) [6]; 0.1250 kg/ha) | CYPSE herbicidal effect rating (CYPSE (Flatsedge) [6]; 0.2500 kg/ha) | CASOB herbicidal rating (CASOB (Sicklepod); rate 0.0315 kg/ha) | Herbicidal rating CYPIR (CYPIR (Rice Flatsedge); Rate 0.1250 kg/ha)
4.5: ORYSAT herbicidal rating (ORYSAT (Rice, Tebonnet) [5]; rate 0.0630 kg/ha)
5.0: ZEAMX herbicidal rating (ZEAMX (Corn, Field); rate 0.0158 kg/ha) | ZEAMX herbicidal rating (ZEAMX (Corn, Field); rate 0.0315 kg/ha)
7.0: Preemergence herbicidal rating AMBEL (AMBEL (Ragweed, Common); rate 0.0625 kg/ha) | ZEAMX herbicidal rating (ZEAMX (Corn, Field); rate 0.0630 kg/ha) | Herbicidal rating CYPIR (CYPIR (Rice Flatsedge); Rate 0.2500 kg/ha) | GALAP herbicidal rating (GALAP (Galium); rate 0.0630 kg/ha) | CHEAL herbicidal rating ([7]; rate 0.0315 kg/ha)
1.0: Preemergence herbicidal rating AMBEL (AMBEL (Ragweed, Common); rate 0.0156 kg/ha) | Preemergence herbicidal rating ORYSAT (ORYSAT (Rice, Tebonnet) [3]; rate 0.1250 kg/ha) | Preemergence herbicidal rating GLXMAW ([4]; rate 0.0156 kg/ha) | Preemergence herbicidal rating GLXMAW ([4]; rate 0.0625 kg/ha)
6.0: GALAP herbicidal rating (GALAP (Galium); rate 0.0315 kg/ha) | CHEAL herbicidal rating ([7]; rate 0.0158 kg/ha)
0.0: Herbicidal rating SAGPY ([1]; Rate 0.1250 kg/ha) | Herbicidal rating SAGPY ([1]; Rate 0.2500 kg/ha) | Preemergence herbicidal rating ORYSAT (ORYSAT (Rice, Tebonnet) [3]; rate 0.0156 kg/ha) | Preemergence herbicidal rating ORYSAT (ORYSAT (Rice, Tebonnet) [3]; rate 0.0313 kg/ha) | Preemergence herbicidal rating ORYSAT (ORYSAT (Rice, Tebonnet) [3]; rate 0.0625 kg/ha) | Preemergence herbicidal rating GLXMAW ([4]; rate 0.0313 kg/ha) | Preemergence herbicidal rating SETVI (SETVI (Foxtail, Green); rate 0.0156 kg/ha) | Preemergence herbicidal rating SETVI (SETVI (Foxtail, Green); rate 0.0313 kg/ha) | Preemergence herbicidal rating SETVI (SETVI (Foxtail, Green); rate 0.0625 kg/ha)
9.0: Preemergence herbicidal rating AMBEL (AMBEL (Ragweed, Common); rate 0.1250 kg/ha) | Preemergence herbicidal rating AMBEL (AMBEL (Ragweed, Common); rate 0.2500 kg/ha) | Preemergence herbicidal rating SETVI (SETVI (Foxtail, Green); rate 0.2500 kg/ha)
2.0: Preemergence herbicidal rating AMBEL (AMBEL (Ragweed, Common); rate 0.0313 kg/ha) | CASOB herbicidal rating (CASOB (Sicklepod); rate 0.0158 kg/ha)

COC(=O)[C@@H](Cc1ccccc1)N1C(=O)CSC1=Nc1cc(-n2c(=O)cc(C(F)(F)F)n(C)c2=O)c(F)cc1Cl [Compound 74, Methyl α-benzyl-2-{{2-chloro-5-[3,6-dihydro-3-methyl-2,6-dioxo-4-(trifluoromethyl)-1(2H)-pyrimidinyl]-4-fluorophenyl}imino}-4-oxo-3-thiazolidineacetate, D-]
1.0: Preemergence herbicidal rating AMBEL (AMBEL (Ragweed, Common); rate 0.0313 kg/ha) | Preemergence herbicidal rating ORYSAT (ORYSAT (Rice, Tebonnet) [3]; rate 0.0625 kg/ha) | Preemergence herbicidal rating ORYSAT (ORYSAT (Rice, Tebonnet) [3]; rate 0.1250 kg/ha) | Preemergence herbicidal rating ORYSAT (ORYSAT (Rice, Tebonnet) [3]; rate 0.2500 kg/ha) | Preemergence herbicidal rating GLXMAW ([4]; rate 0.0313 kg/ha) | Preemergence herbicidal rating GLXMAW ([4]; rate 0.1250 kg/ha) | Preemergence herbicidal rating GLXMAW ([4]; rate 0.2500 kg/ha) | Preemergence herbicidal rating SETVI (SETVI (Foxtail, Green); rate 0.0625 kg/ha) | GALAP herbicidal rating (GALAP (Galium); rate 0.0158 kg/ha)
4.0: CASOB herbicidal rating (CASOB (Sicklepod); rate 0.0315 kg/ha) | Preemergence herbicidal rating SETVI (SETVI (Foxtail, Green); rate 0.1250 kg/ha) | GALAP herbicidal rating (GALAP (Galium); rate 0.0315 kg/ha)
3.0: Herbicidal rating SAGPY ([1]; Rate 0.0313 kg/ha) | Herbicidal rating SAGPY ([1]; Rate 0.0625 kg/ha) | Herbicidal rating SAGPY ([1]; Rate 0.1250 kg/ha) | Preemergence herbicidal rating AMBEL (AMBEL (Ragweed, Common); rate 0.0625 kg/ha) | CASOB herbicidal rating (CASOB (Sicklepod); rate 0.0158 kg/ha)
5.5: ZEAMX herbicidal rating (ZEAMX (Corn, Field); rate 0.0630 kg/ha) | ORYSAT herbicidal rating (ORYSAT (Rice, Tebonnet) [5]; rate 0.0630 kg/ha)
9.0: Herbicidal rating SAGPY ([1]; Rate 0.2500 kg/ha) | Preemergence herbicidal rating AMBEL (AMBEL (Ragweed, Common); rate 0.1250 kg/ha) | Preemergence herbicidal rating AMBEL (AMBEL (Ragweed, Common); rate 0.2500 kg/ha) | Herbicidal rating CYPSE (CYPSE (Flatsedge) [2]; Rate 0.2500 kg/ha) | CYPSE herbicidal effect rating (CYPSE (Flatsedge) [6]; 0.2500 kg/ha) | CASOB herbicidal rating (CASOB (Sicklepod); rate 0.0630 kg/ha) | Preemergence herbicidal rating SETVI (SETVI (Foxtail, Green); rate 0.2500 kg/ha) | GALAP herbicidal rating (GALAP (Galium); rate 0.0630 kg/ha) | CHEAL herbicidal rating ([7]; rate 0.0158 kg/ha) | CHEAL herbicidal rating ([7]; rate 0.0315 kg/ha)
3.5: ORYSAT herbicidal rating (ORYSAT (Rice, Tebonnet) [5]; rate 0.0158 kg/ha)
4.5: ZEAMX herbicidal rating (ZEAMX (Corn, Field); rate 0.0158 kg/ha) | ORYSAT herbicidal rating (ORYSAT (Rice, Tebonnet) [5]; rate 0.0315 kg/ha)
0.0: Preemergence herbicidal rating AMBEL (AMBEL (Ragweed, Common); rate 0.0156 kg/ha) | Herbicidal rating CYPSE (CYPSE (Flatsedge) [2]; Rate 0.0313 kg/ha) | Preemergence herbicidal rating ORYSAT (ORYSAT (Rice, Tebonnet) [3]; rate 0.0156 kg/ha) | Preemergence herbicidal rating ORYSAT (ORYSAT (Rice, Tebonnet) [3]; rate 0.0313 kg/ha) | Preemergence herbicidal rating GLXMAW ([4]; rate 0.0156 kg/ha) | Preemergence herbicidal rating GLXMAW ([4]; rate 0.0625 kg/ha) | CYPSE herbicidal effect rating (CYPSE (Flatsedge) [6]; 0.0313 kg/ha) | Herbicidal rating CYPIR (CYPIR (Rice Flatsedge); Rate 0.0313 kg/ha) | Herbicidal rating CYPIR (CYPIR (Rice Flatsedge); Rate 0.0625 kg/ha) | Herbicidal rating CYPIR (CYPIR (Rice Flatsedge); Rate 0.1250 kg/ha) | Herbicidal rating CYPIR (CYPIR (Rice Flatsedge); Rate 0.2500 kg/ha) | Preemergence herbicidal rating SETVI (SETVI (Foxtail, Green); rate 0.0156 kg/ha) | Preemergence herbicidal rating SETVI (SETVI (Foxtail, Green); rate 0.0313 kg/ha)
5.0: Herbicidal rating CYPSE (CYPSE (Flatsedge) [2]; Rate 0.0625 kg/ha) | Herbicidal rating CYPSE (CYPSE (Flatsedge) [2]; Rate 0.1250 kg/ha) | ZEAMX herbicidal rating (ZEAMX (Corn, Field); rate 0.0315 kg/ha) | CYPSE herbicidal effect rating (CYPSE (Flatsedge) [6]; 0.0625 kg/ha) | CYPSE herbicidal effect rating (CYPSE (Flatsedge) [6]; 0.1250 kg/ha)
